# Results reported in patent US7902327B2, “Dendrimeric peptides, pharmaceutical compositions and methods of using the same” (New York University School of Medicine, priority 2007, dated 2011).
# Like-named read-outs stand apart in the source and are kept apart here. Where a SMILES comes first, the peptide text is derived from it. Side-chain parts run from the residue outwards. [ ]: non-standard residue; d: D form. The star is where a group is joined. Lys(α,ε-(ArgTrp)2) = N=C(N)NCCC[C@H](N)C(=O)N[C@@H](Cc1c[nH]c2ccccc12)C(=O)NCCCC[C@H](NC(=O)[C@H](Cc1c[nH]c2ccccc12)NC(=O)[C@@H](N)CCCNC(=N)N)C(=O)*; βAla = NCCC(=O)O
# Columns and labels:
# [1] = format: cell-based, mouse
# Method: The cells were grown in 96 well plates and a 100 μl aliquot of a three fold serial dilution of the peptides was dispensed into each well. Buffer alone was used as the positive control and H2O2 was used as the negative control. MTS […] was added to each well prior to incubation to visualize the cells. The cells were incubated for 24 hours and their absorbance were measured at λ=495 nm.
# [2] = dye leakage assay (calcein); conditions: POPG vesicles
# Text: To confirm that the multivalent AMPs interact with and disrupt phospholipid bilayers, we measured the ability of dendrimer (RW)4D to induce leakage of calcein, entrapped within the interior of large unilamellar vesicles of model membrane POPG (1-Palmitoyl-2-Oleoyl-sn-Glycero-3-[Phospho-rac-(1-glycerol)]) with negatively charged head group. The leakage of vesicle contents to the AMPs was monitored by the release of calcein encapsulated in large unilamellar vesicles. The method of preparation of dye-encapsulated vesicles has been reported in detail (Torchilin and Weissig 2003). In short, large unilamellar POPG vesicles were prepared by reverse-phase evaporation. After evaporating the organic solvent, residue were hydrated with the calcein solution (100 mM) in buffer (10 mM Tris-HCl pH 7.4). The free calcein was removed by eluting through a Sephadex G-50 size-exclusion column in the same buffer. The leakage process was monitored by following the increase of calcein fluorescence intensity at 515 nm (excitation at 490 nm) after 20 μL of AMPs at different concentrations were added to 10 μL of vesicle solution mixed in 2 mL of TBS buffer. Complete leakage was achieved by addition of 100 uL of 20% Triton X-100 to the 2 ml solution, and the corresponding fluorescence intensity was used as 100% leakage for the calculation of leakage fraction.
# [3] = system: multi-drug resistant MRSA gram-positive bacteria; experiment: killing of multi-drug resistant bacteria, one hour contact; format: cell-based
# [4] = system: E. coli(D31) gram-negative bacteria; experiment: as above; format: cell-based
# [5] = antibacterial activity under physiological conditions (90% human serum); format: cell-based
# Method: In a further experiment, antibacterial activity under physiological conditions was tested. The MIC50 was determined in the presence of 90% human serum, respectively.
# Acineto Baumannii = experiment: killing and growth inhibition of Acineto Baumannii; format: cell-based
# gram-positive MRSA = experiment: LIVE/DEAD staining assay, membrane damage; format: cell-based; conditions: 1 hr incubation; (RW)4D 10 uM
# [6] = system: gram-negative A. baumannii; experiment: LIVE/DEAD staining assay, membrane damage; format: cell-based; conditions: 1 hr incubation; (RW)4D 10 uM
# E. coli (RP437) biofilm = experiment: biofilm formation in 96 well plates, crystal violet; format: cell-based; conditions: 24 hours
# Text: The effect of dendrimers of the invention on E. coli biofilm formation was further examined and measured. The development of a bacterial biofilm allows for the bacteria to become more antibiotic resistant. […] Assay summary: E. coli (RP437) was used to form biofilms in 96 well plates with and without different concentrations of peptides.
# E. coli RP437 biofilm = experiment: two-day biofilm on stainless steel coupons, Live/Dead staining; format: cell-based; conditions: 25 μg/mL, 48 hours
# Method: E. coli biofilm inhibition by (RW)4D was also studied on stainless steel coupons. Microscope images were taken after staining the two-day biofilms with Live/Dead staining solution. […] Assay summary: E. coli RP437 was used to form biofilms in a plastic dish with stainless steel coupons and different concentrations of peptides. After 48 hours incubation, coupon was soaked in NaCl buffer containing staining component in the dark for 15 mins.
# [7] = system: ampicillin- and streptomycin-resistant E. coli (D31)
# [8] = system: multi-drug resistant strain S. aureus
# [9] = system: B. anthracis (32F2 Sterne)
# [10] = system: three other gram-positive bacteria
# trypsin = trypsin at high concentration, various time intervals up to 24 hrs
# [11] = system: Multidrug-resistant gram-positive S. aureus; conditions: over 250 generations
# [12] = system: gram-negative E. coli (D31); conditions: over 250 generations
# E. coli RP437 biofilms [13] = experiment: biofilm assay on stainless steel coupons with LIVE/DEAD staining; format: cell-based; conditions: for Biofilm coefficients: Dead cells / Biofilm coefficients: Live cells / Biofilm coefficients: Total biofilms: 24 hours
# Method: The stainless steel (S.S.) coupons were polished using a fine 3M SandBlaster sandpaper, then autoclaved for sterilization. […] For all the treatments, duplicate coupons were tested. To analyze the E. coli biofilms using fluorescence microscopy, the biofilms were stained with […] bacterial viability kit (Cat# L7012, Invitrogen Corporation, California). Each S.S. coupon was washed gently by dipping vertically in 0.85% NaCl buffer three times (change to fresh buffer after each dipping). Then, they were soaked in 1 mL of 0.85% NaCl buffer containing 3 μl of staining component A and B (1:4) in the dark for 15 mins. Images were taken by AXIO Imager.M1 (Carl Zeiss, German). Five images were taken for each sample. Data were obtained and are presented in Table 3, below, as well as in FIG. 5.
# E. coli RP437 biofilms [14] = experiment: CFU assay of biofilm inhibition; format: cell-based; conditions: 25 μg/mL, 24 hours
# Method: Twenty-four hour biofilms of E. coli RP437 were grown on stainless steel coupons in LB medium containing up to 100 μg/mL of the three antimicrobial peptides—dendrimer, hexamer, and octamer. CFU counts were used to determine the extent of inhibition. The procedure of the study is as follows.
# Overnight cultures of E. coli RP437 grown in LB medium were used to inoculate 5 mL of LB supplemented with up to 100 μg/mL of each peptide and polished, sterile 316L stainless steel coupons (1.2 cm×0.6 cm×0.1 cm). The cultures were incubated at 37° C. for 24 hours. The coupons were then removed from the bacterial culture using sterile forceps and washed three times in 0.85% NaCl buffer and placed in round-bottom tubes containing 3 mL of fresh NaCl buffer. These were then sonicated for 1.5 minutes in a water bath. The NaCl buffer containing bacterial cells was serially diluted and 60 μL of 1000 and 5000 fold dilutions were plated on LB agar plates. The plates were incubated at 37° C. overnight. The number of CFUs for each sample was counted after incubation. The experiment was conducted in duplicate.
# fresh sheep erythrocytes = experiment: hemolytic assay; format: cell-based; conditions: sheep erythrocytes, 37° C., 30 minutes
# Method: Hemolytic activity of model peptides was assessed on fresh sheep erythrocytes (Fitzgerald Inc., Concord, Mass.). […] The resulting supernatant was diluted by a factor of 40 in distilled water. The absorbances of the supernatant at λ=540 nm (OD540) were measured in the UV Spectrophotometer. […] Hemolytic index (HI) was defined as HI═HD50/IC50.
# [15] = mean over no, low and high salt
compound,measurement,setting,value
"N=C(N)NCCC[C@H](N)C(=O)N[C@@H](Cc1c[nH]c2ccccc12)C(=O)NCCCC[C@H](NC(=O)[C@H](Cc1c[nH]c2ccccc12)NC(=O)[C@@H](N)CCCNC(=N)N)C(=O)NCCCC[C@H](NC(=O)[C@H](CCCCNC(=O)[C@H](Cc1c[nH]c2ccccc12)NC(=O)[C@@H](N)CCCNC(=N)N)NC(=O)[C@H](Cc1c[nH]c2ccccc12)NC(=O)[C@@H](N)CCCNC(=N)N)C(=O)NCCC(N)=O [Den(RW)4D] (H-RWK([Trp-Arg])K(Lys(α,ε-(ArgTrp)2))[βAla]-NH2)",IC50,[1],~1380 mg/L
same,concentration at which peptide caused 50% dye leakage,[2],0.5 µg/mL
same,decrease in bacteria remaining after contact,[3],3 log
same,decrease in bacteria remaining after contact,[4],3 log
same,antimicrobial activity in the presence of human serum,[5],human serum cannot completely block the antimicrobial activity
same,killing and growth inhibition,Acineto Baumannii,can kill the bacteria and inhibit its growth at very low concentration
same,membrane damage / killing by Live/Dead staining,gram-positive MRSA,show damaged membranes
same,membrane damage / killing by Live/Dead staining,[6],show damaged membranes
same,inhibition of biofilm formation,E. coli (RP437) biofilm,exhibited inhibition of E. coli biofilm formation
same,total biofilm formation on stainless steel coupons compared with blank control,E. coli RP437 biofilm,significantly reduced
same,increase in MIC50 value from no salt to high-salt condition,[7],50%
same,MIC50 E. coli,[7]; 0 mM NaCl,3.0 mg/L
same,MIC50 E. coli,[7]; 75 mM NaCl,3.9 mg/L
same,MIC50 E. coli,[7]; 150 mM NaCl,4.5 mg/L
same,mean MIC50 against E. coli,[7]; [15],3.8 mg/L
same,MIC50 S. aureus,[8]; 0 mM NaCl,10 mg/L
same,MIC50 S. aureus,[8]; 75 mM NaCl,15 mg/L
same,MIC50 S. aureus,[8]; 150 mM NaCl,16 mg/L
same,mean MIC50 against S. aureus,[8]; [15],13.6 mg/L
same,MIC50 B. subtilis,B. Subtilis (ATCC 6633); ATCC 6633,3.5 mg/L
same,MIC50 B. anthracis,[9],13 mg/L
same,MIC50 E. faecalis,E. faecalis (29212); 29212,5.5 mg/L
same,mean MIC50 against all test organisms,[10]; three gram-positive bacteria,7.4 mg/L
same,inactivation of antibacterial activity by trypsin,trypsin,resistant to inactivation by trypsin
same,development of resistance (MIC90),[11],did not show resistance
same,development of resistance (MIC90),[12],did not show resistance
"N=C(N)NCCC[C@H](N)C(=O)N[C@@H](Cc1c[nH]c2ccccc12)C(=O)NCCCC[C@H](NC(=O)[C@H](Cc1c[nH]c2ccccc12)NC(=O)[C@@H](N)CCCNC(=N)N)C(=O)NCCCC[C@H](NC(=O)[C@H](CCCCNC(=O)[C@H](Cc1c[nH]c2ccccc12)NC(=O)[C@@H](N)CCCNC(=N)N)NC(=O)[C@H](Cc1c[nH]c2ccccc12)NC(=O)[C@@H](N)CCCNC(=N)N)C(=O)NCCC(N)=O [Dendrimer] (H-RWK([Trp-Arg])K(Lys(α,ε-(ArgTrp)2))[βAla]-NH2; N-terminus and C-terminus assumed)",Total biofilm formation compared with blank control (ANOVA),E. coli RP437 biofilms [13]; 25 μg/mL,significantly reduced
same,Biofilm coefficients: Dead cells,E. coli RP437 biofilms [13]; 25 μg/mL,7.11% ± 1.93%
same,Biofilm coefficients: Live cells,E. coli RP437 biofilms [13]; 25 μg/mL,4.42% ± 2.30%
same,Biofilm coefficients: Total biofilms,E. coli RP437 biofilms [13]; 25 μg/mL,11.16% ± 3.09%
same,Total biofilm formation compared with blank control (ANOVA),E. coli RP437 biofilms [13]; 50 μg/mL,significantly reduced
same,Biofilm coefficients: Dead cells,E. coli RP437 biofilms [13]; 50 μg/mL,5.05% ± 1.47%
same,Biofilm coefficients: Live cells,E. coli RP437 biofilms [13]; 50 μg/mL,2.32% ± 1.12%
same,Biofilm coefficients: Total biofilms,E. coli RP437 biofilms [13]; 50 μg/mL,7.06% ± 1.91%
same,reduction of viable biofilm cell counts,E. coli RP437 biofilms [14],ineffective
"CC[C@H](C)[C@H](N)C(=O)N[C@@H](CC(C)C)C(=O)N1CCC[C@H]1C(=O)N[C@@H](Cc1c[nH]c2ccccc12)C(=O)N[C@@H](CCCCN)C(=O)N[C@@H](Cc1c[nH]c2ccccc12)C(=O)N1CCC[C@H]1C(=O)N[C@@H](Cc1c[nH]c2ccccc12)C(=O)N[C@@H](Cc1c[nH]c2ccccc12)C(=O)N1CCC[C@H]1C(=O)N[C@@H](Cc1c[nH]c2ccccc12)C(=O)N[C@@H](CCCNC(=N)N)C(=O)N[C@@H](CCCNC(=N)N)C(N)=O [Indolicidin, reference compound]",HD50 (peptide concentration corresponding to 50% hemolysis),fresh sheep erythrocytes,293 µg/mL
same,increase in MIC50 value from no salt to high-salt condition,"[7]; E. coli and S. aureus, 0 to 150 mM NaCl",> 100%
same,MIC50 B. subtilis,B. Subtilis (ATCC 6633); ATCC 6633,1.0 mg/L
same,MIC50 B. anthracis,[9]; 32F2 Sterne,8.2 mg/L
same,MIC50 E. faecalis,E. faecalis (29212); 29212,1.6 mg/L
same,mean MIC50 against all test organisms,[10],3.6 mg/L
"CN[C@H](CC(C)C)C(=O)N[C@H]1C(=O)N[C@@H](CC(N)=O)C(=O)N[C@H]2C(=O)N[C@H]3C(=O)N[C@H](C(=O)N[C@H](C(=O)O)c4cc(O)cc(O)c4-c4cc3ccc4O)[C@H](O)c3ccc(c(Cl)c3)Oc3cc2cc(c3O[C@@H]2O[C@H](CO)[C@@H](O)[C@H](O)[C@H]2O[C@H]2C[C@](C)(N)[C@H](O)[C@H](C)O2)Oc2ccc(cc2Cl)[C@H]1O [vancomycin, reference compound]",membrane damage / killing by Live/Dead staining,gram-positive MRSA,did not actively kill
same,membrane damage / killing by Live/Dead staining,[6],did not actively kill
Gentamicin [reference compound],HD50 (peptide concentration corresponding to 50% hemolysis),fresh sheep erythrocytes,>2000 µg/mL
same,MIC50 E. coli,[7]; 0 mM NaCl,1.2 mg/L
same,MIC50 E. coli,[7]; 75 mM NaCl,1.2 mg/L
same,MIC50 E. coli,[7]; 150 mM NaCl,1.2 mg/L
same,MIC50 S. aureus,[8]; 0 mM NaCl,51 mg/L
same,MIC50 S. aureus,[8]; 75 mM NaCl,51 mg/L
same,MIC50 S. aureus,[8]; 150 mM NaCl,51 mg/L
same,MIC50 B. subtilis,B. Subtilis (ATCC 6633),0.32 mg/L
same,MIC50 B. anthracis,[9],3.1 mg/L
same,MIC50 E. faecalis,E. faecalis (29212),0.36 mg/L
